From US4843087A (priority 1986, dated 1989)
In brackets after ≈: the same amount, converted by molar mass.

System: human rhinovirus (HRV) serotypes
Experiment: microbe, parasite or virus in culture
Assay type: cell-based
Settings: for MIC50: read-out: Rhinovirus MIC50; for IC (MIC80 of serotype panel): read-out: Rhinovirus MIC80

SMILES | MIC50 | IC (MIC80 of serotype panel)
Cc1cc(CCCCCCCOc2ccc(C3=N[C@@H](C(C)C)CO3)cc2)on1 [Example 126, (S)-5-{7-[4-(4,5-Dihydro-4-isopropyl-2-oxazolyl)phenoxy]heptyl}-3-methylisoxazole] | 1.23 µg/mL (≈ 3.2 µM) | 26.2 µg/mL
Cc1cc(CCCC(C)Oc2c(Cl)cc(C3=NCCO3)cc2Cl)on1 (stereo not drawn) [Example 110, 5-{4-[2,6-Dichloro-4-(4,5-dihydro-2-oxazolyl)phenoxy]pentyl}-3-methylisoxazole] | 0.24 µg/mL (≈ 0.626 µM) | 0.64 µg/mL
Cc1cc(CCC=CCOc2ccc(C3=NCCO3)cc2)on1 [Example 55, 5-{5-[4-(4,5-Dihydro-2-oxazolyl)phenoxy]-3-pentenyl}-3-methylisoxazole] | 49.6 µg/mL (≈ 159 µM) | 99 µg/mL
Cc1cc(CCCCCOc2c(Cl)cc(C3=NCCO3)cc2Cl)sn1 [150(b), 2-{3,5-Dichloro-4-[(5-(3-methyl-5-isothiazolyl)pentyl)oxy]phenyl}-4,5-dihydro-oxazole] | 0.12 µg/mL (≈ 0.3 µM) | 0.35 µg/mL
Cc1cc(CCCCCCCOc2ccc(C3=NCC(CO)O3)cc2)on1 (stereo not drawn) [Example 23, 5-{7-[4-(4,5-Dihydro-5-hydroxymethyl-2-oxazolyl)phenoxy]heptyl}-3-methylisoxazole] | 1.55 µg/mL (≈ 4.16 µM) | 2.9 µg/mL
Cc1cc(CCCCCCCOc2ccc(C3=N[C@H](C(C)C)CO3)cc2)on1 [Example 127, (R)-5-{7-[4-(4,5-Dihydro-4-isopropyl-2-oxazolyl)phenoxy]heptyl}-3-methylisoxazole] | 0.76 µg/mL (≈ 1.98 µM) | 1.4 µg/mL
Cc1cc(CCCCCOc2ccc(C3=NCCO3)cc2C(C)(C)C)on1 [Example 76, 5-{5-[4-(4,5-Dihydro-2-oxazolyl)-2-(1,1-dimethylethyl)phenoxy]pentyl}-3-methylisoxazole] | 50.1 µg/mL (≈ 135 µM) | 99 µg/mL
Cc1cc(CCCCCOc2c(Cl)cc(C3=NCCO3)cc2C(F)(F)F)on1 [155(c), 5-{5-[2-Chloro-4-(4,5-dihydro-2-oxazolyl)-6-(trifluoromethyl)phenoxy]pentyl}-3-methylisoxazole] | 0.11 µg/mL (≈ 0.264 µM) | 0.56 µg/mL
OCCOCOCc1cc(CCCCCOc2c(Cl)cc(C3=NCCO3)cc2Cl)on1 [149(b), 5-{5-[2,6-Dichloro-4-(4,5-dihydro-2-oxazolyl)phenoxy]pentyl}-3-isoxazolylmethoxymethoxyethanol] | 0.13 µg/mL (≈ 0.275 µM) | 1.1 µg/mL
Cc1cc(CCCCCCCOc2ccc(C3=NC(C)CO3)cc2Cl)on1 (stereo not drawn) [17(b), 5-{7-[2-Chloro-4-(4,5-dihydro-4-methyl-2-oxazolyl)phenoxy]heptyl}-3-methylisoxazole] | 0.89 µg/mL (≈ 2.28 µM) | 26 µg/mL
C=CCC1COC(c2ccc(OCCCCCCCc3cc(C)no3)cc2)=N1 (stereo not drawn) [Example 139, 5-{7-[4-(4,5-Dihydro-4-(2-propenyl)-2-oxazolyl)phenoxy]heptyl}-3-methylisoxazole] | 0.795 µg/mL (≈ 2.08 µM) | 25.9 µg/mL
Cc1cc(CCCCCCCOc2ccc(C3=N[C@@H](C)CO3)cc2)on1 [Example 4, (-)-5-{7-[4-(4,5-Dihydro-4-methyl-2oxazolyl)phenoxy]heptyl}-3-methylisoxazole] | 0.025 µg/mL (≈ 0.0701 µM) | 0.03 µg/mL
CCCC[C@H]1COC(c2ccc(OCCCCCCCc3cc(C)no3)cc2)=N1 [Example 130, (S)-5-{7-[4-(4-Butyl-4,5-dihydro-2-oxazolyl)phenoxy]heptyl}-3-methylisoxazole] | 1.08 µg/mL (≈ 2.71 µM) | 2.07 µg/mL
Cc1cc(CCCCCCCOc2ccc(C3=NC(CCl)CO3)cc2)on1 (stereo not drawn) [Example 140, 5-{7-[4-(4-Chloromethyl-4,5-dihydro-2-oxazolyl)phenoxy]heptyl}-3-methylisoxazole] | 0.49 µg/mL (≈ 1.25 µM) | 26.9 µg/mL
Cc1cc(CCCCCCCOc2ccc(C3=NCC(CCl)O3)cc2)on1 (stereo not drawn) [Example 39, 5-{7-[4-(5-Choromethyl-4,5-dihydro-2-oxazolyl)phenoxy]heptyl}-3-methylisoxazole] | 0.87 µg/mL (≈ 2.23 µM) | 99 µg/mL
CCCCCCc1cc(CCOc2ccc(C3=N[C@@H](C)CO3)cc2)on1 [Example 132, (S)-5-{2-[4-(4,5-Dihydro-4-methyl-2-oxazolyl)phenoxy]ethyl}-3-hexylisoxazole] | 1.02 µg/mL (≈ 2.88 µM) | 1.9 µg/mL
Cc1cc(CCCCOc2ccc(C3=NC(C)CO3)cc2Cl)on1 (stereo not drawn) [Example 65, 5-{4-[2-Chloro-4-(4,5-dihydro-4-methyl-2-oxazolyl)phenoxy]butyl}-3-methylisoxazole] | 0.26 µg/mL (≈ 0.745 µM) | 0.45 µg/mL
Cc1cc(CCCCCOc2ccc(C3=NCCO3)c(Cl)c2Cl)on1 [Example 72, 5-{5-[2,3-Dichloro-4-(4,5-dihydro-2-oxazolyl)phenoxy]pentyl}-3-methylisoxazole] | 0.27 µg/mL (≈ 0.704 µM) | 0.69 µg/mL
Cc1cc(CCCCCCCCOc2ccc(C3=NC(C)CO3)cc2Cl)on1 (stereo not drawn) [27(b)] | 0.405 µg/mL (≈ 1 µM) | 25.8 µg/mL
CCCC[C@@H]1COC(c2ccc(OCCCCCCCc3cc(C)no3)cc2)=N1 [Example 131, (R)-5-{7-[4-(4-Butyl-4,5-dihydro-2-oxazolyl)phenoxy]heptyl}-3-methylisoxazole] | 1.44 µg/mL (≈ 3.61 µM) | 2.38 µg/mL

SMILES | MIC50 | IC (MIC80 of serotype panel)
Cc1cc(CCCCCOc2ccc(C3=NC(C)(C)CO3)cc2Cl)on1 [Example 57, 5-{5-[2-Chloro-4-(4,5-dihydro-4,4-dimethyl-2-oxazolyl)phenoxy]pentyl}-3-methylisoxazole] | 50.1 µg/mL (≈ 133 µM) | 99 µg/mL
Cc1cc(CCCCCOc2c(C)cc(C3=NCCO3)c(Cl)c2C)on1 [Example 160, 5-{5-[3-Chloro-4-(4,5-dihydro-2-oxazolyl)-2,6-dimethylphenoxy]pentyl}-3-methylisoxazole] | 0.24 µg/mL (≈ 0.637 µM) | 0.4 µg/mL
Cc1cc(CCCCCOc2c(Cl)cc(C(=O)NCCCCl)cc2Cl)on1 [156(a), 3,5-Dichloro-N-(3-chloropropyl)-4-{[5-(3-methyl-5-isoxazolyl)pentyl]oxy}benzamide] | 0.795 µg/mL (≈ 1.83 µM) | 99 µg/mL
CCC[C@@H]1COC(c2ccc(OCCCCCCCc3cc(C)no3)cc2)=N1 [Example 129, (R)-5-{7-[4-(4,5-Dihydro-4-propyl-2-oxazolyl)phenoxy]heptyl}-3-methylisoxazole] | 1.33 µg/mL (≈ 3.46 µM) | 2.6 µg/mL
Cc1cc(CCCCCOc2ccc(C3=N[C@@H](C)CO3)cc2)on1 [Example 121, (S)-5-{5-[4-(4,5-Dihydro-4-methyl-2-oxazolyl)phenoxy]pentyl}-3-methylisoxazole] | 0.09 µg/mL (≈ 0.274 µM) | 26 µg/mL
Cc1cc(CCCCCOc2c(Cl)cc(C3=NC(CO)CO3)cc2Cl)on1 (stereo not drawn) [Example 138, 5-{5-[2,6-Dichloro-4-(4,5-dihydro-4-hydroxymethyl-2-oxazolyl)phenoxy]pentyl}-3-methylisoxazole] | 0.2 µg/mL (≈ 0.484 µM) | 1.2 µg/mL
CC[C@H]1COC(c2ccc(OCCCCCCCc3cc(C)no3)cc2)=N1 [Example 124, (S)-5-{7-[4-(4-Ethyl-4,5-dihydro-2oxazolyl)phenoxy]heptyl}-3-methylisoxazole] | 0.36 µg/mL (≈ 0.972 µM) | 2.4 µg/mL
Cc1cc(CCCCOc2c(Cl)cc(-c3nc(C)c(C)o3)cc2Cl)on1 [Example 120, 5-{4-[2,6-Dichloro-4-(4,5-dimethyl-2-oxazolyl)phenoxy]butyl}-3-methylisoxazole] | 0.16 µg/mL (≈ 0.405 µM) | 0.67 µg/mL
Cc1cc(CCCCCCCOc2ccc(C3=NC(C)(C)CO3)cc2)on1 [Example 5, 5-{7-[4-(4,5-Dihydro-4,4-dimethyl-2oxazolyl)phenoxy]heptyl}-3-methylisoxazole] | 1.3 µg/mL (≈ 3.51 µM) | 99 µg/mL
CC[C@@H]1COC(c2ccc(OCCCCCCCc3cc(C)no3)cc2)=N1 [Example 125, (R)-5-{7-[4-(4-Ethyl-4,5-dihydro-2-oxazolyl)phenoxy]heptyl}-3-methylisoxazole] | 0.69 µg/mL (≈ 1.86 µM) | 2.3 µg/mL
Cc1cc(CCCCCOc2c(Cl)cc(C3=NCCCO3)cc2Cl)on1 [156(b)] | 0.705 µg/mL (≈ 1.77 µM) | 28.6 µg/mL
Cc1cc(CCCCCCCCOc2ccc(C3=NCCO3)cc2)on1 [18(b), 5-{8-[4-(4,5-Dihydro-2-oxazolyl)phenoxy]octyl}-3-methylisoxazole] | 1.75 µg/mL (≈ 4.91 µM) | 2.1 µg/mL
Cc1cc(CC/C=C\COc2c(Cl)cc(C3=NCCO3)cc2Cl)on1 [Example 112, 5-{5-[2,6-Dichloro-4-(4,5-dihydro-2-oxazolyl)phenoxy]-3-pentenyl}-3-methylisoxazole (Z-isomer)] | 0.079 µg/mL (≈ 0.207 µM) | 0.74 µg/mL
Cc1cc(CCCCCCCOc2cccc(C3=NCCO3)c2)on1 [26(b), 5-{7-[3-(4,5-Dihydro-2-oxazolyl)phenoxy]heptyl}-3-methylisoxazole] | 0.94 µg/mL (≈ 2.75 µM) | 1.12 µg/mL
COCC1CN=C(c2ccc(OCCCCCCCc3cc(C)no3)cc2)O1 (stereo not drawn) [Example 40, 5-{7-[4-(4,5-Dihydro-5-methoxymethyl-2-oxazolyl)phenoxy]heptyl}-3-methylisoxazole] | 0.535 µg/mL (≈ 1.38 µM) | 99 µg/mL
CCC[C@H]1COC(c2ccc(OCCCCCCCc3cc(C)no3)cc2)=N1 [Example 128, (S)-5-{7-[4-(4,5-Dihydro-4-propyl-2-oxazolyl)phenoxy]heptyl}-3-methylisoxazole] | 0.245 µg/mL (≈ 0.637 µM) | 27.1 µg/mL
Cc1cc(CCCCCOc2c(C)cc(-c3nc(C)c(C)o3)cc2C)on1 [118(c), 5-{5-[4-(4,5-Dimethyl-2-oxazolyl)-2,6-dimethylphenoxy]pentyl}-3-methylisoxazole] | 0.37 µg/mL (≈ 1 µM) | 0.84 µg/mL
Cc1cc(CCCCCCCOc2ccc(C3=NC[C@H](C)O3)cc2)on1 [Example 122, (S)-5-{7-[4-(4,5-Dihydro-5-methyl-2-oxazolyl)phenoxy]heptyl}-3-methylisoxazole] | 0.24 µg/mL (≈ 0.673 µM) | 50.3 µg/mL
Cc1cc(CCCCOc2ccc(C3=NC(C)(C)CO3)cc2Cl)on1 [Example 66, 5-{4-[2-Chloro-4-(4,5-dihydro-4,4-dimethyl-2-oxazolyl)phenoxy]butyl}-3-methylisoxazole] | 0.78 µg/mL (≈ 2.15 µM) | 99 µg/mL
